This is an account of results in US8507560B2, “Pharmaceutical compositions comprising 3,4-dihydroisoquinolin-2(1H)-yl-3-phenylurea derivatives having formyl peptide receptor like-1 (FPRL-1) agonist or antagonist activity” (Allergan, Inc., priority 2010, dated 2013).

The test deals with T1, FPRL-1 (Homo sapiens, UniProt P25090).
T1 construct: expressed in transfected cells
T1 sequence (P25090 1-351): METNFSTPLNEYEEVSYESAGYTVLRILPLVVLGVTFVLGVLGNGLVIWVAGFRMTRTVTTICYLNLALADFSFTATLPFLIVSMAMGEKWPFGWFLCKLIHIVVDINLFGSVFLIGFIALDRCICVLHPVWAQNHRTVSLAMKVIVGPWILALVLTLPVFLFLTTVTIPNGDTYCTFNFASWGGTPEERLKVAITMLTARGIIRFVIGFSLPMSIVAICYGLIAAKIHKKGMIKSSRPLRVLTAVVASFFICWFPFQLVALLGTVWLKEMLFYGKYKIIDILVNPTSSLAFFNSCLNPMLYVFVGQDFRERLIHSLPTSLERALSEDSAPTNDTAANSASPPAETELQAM
In words: FLIPR Tetra calcium activity assay in CHO-Ga16 cells stably expressing FPRL1. The test is classed as cell-based. Particulars: compound-induced calcium activity; for EC50: 0.61 to 10,000 nM; for FPRL-1 Ga16-CHO (eff) efficacy: efficacy value in parentheses. As to the method: CHO-Ga16 cells stably expressing FPRL1 were cultured in (F12, 10% FBS, 1% PSA, 400 μg/ml geneticin and 50 μg/ml hygromycin) and HEK-Gqi5 cells stable expressing FPR1 were cultured in (DMEM high glucose, 10% FBS, 1% PSA, 400 μg/ml geneticin and 50 μg/ml hygromycin). In general, the day before the experiment, 18,000 cells/well were plated in a 384-well clear bottom poly-d-lysine coated plate. The following day the screening compound-induced calcium activity was assayed on the FLIPR^Tetra. The drug plates were prepared in 384-well microplates using the EP3 and the MultiPROBE robotic liquid handling systems. Compounds were tested at concentrations ranging from 0.61 to 10,000 nM. Results are expressed as EC50 (nM) and efficacy values.

Turning to `COc1cc2c(cc1OC)CN(C(=O)C(CCCCNC(=O)c1ccco1)NC(=O)Nc1ccc(C)cc1)CC2` (centres unmarked) [Compound 1], the 50% effective concentration (EC50) worked out at 143 nM and the “FPRL-1 Ga16-CHO (eff) efficacy” value turned out to be 0.61.

In the case of `COc1cc2c(cc1OC)CN(C(=O)C(CCCCNC(=O)Nc1ccccc1)NC(=O)Nc1ccc(Br)cc1)CC2` (centres unmarked) [Compound 2], the EC50 was 91 nM and the “FPRL-1 Ga16-CHO (eff) efficacy” value is reported as 0.79.

For the molecule `COc1cc2c(cc1OC)CN(C(=O)C(CCCCNC(=O)Nc1ccccc1)NC(=O)Nc1ccc(SC)cc1)CC2` (centres unmarked) [Compound 3], the EC50 was 32 nM and the “FPRL-1 Ga16-CHO (eff) efficacy” value is 0.76.

As for `COc1cc2c(cc1OC)CN(C(=O)C(CCCCNC(=O)NC1CCCCC1)NC(=O)Nc1ccc(SC)cc1)CC2` (centres unmarked) [Compound 4], the EC50 worked out at 59 nM and the “FPRL-1 Ga16-CHO (eff) efficacy” value is listed as 0.71.

The term EC50 denotes the concentration that produces a half-maximal response.
